This data set can be described thus: Storage stability of crystalline SN38. Format: physicochemical. Particulars: 25° C. and 70% relative humidity for one year.

Consider `CCc1c2c(nc3ccc(O)cc13)-c1cc3c(c(=O)n1C2)COC(=O)C3(O)CC` (stereo not shown) [crystalline SN38, 7-ethyl-10-hydroxycamptothecin], for which the stability on storage entry is “stable”.

The record behind these values is patent publication US8138343B2, “Crystalline polymorph of 7-ethyl-10-hydroxycamptothecin” (ScinoPharm Taiwan Ltd., priority 2007, dated 2012).
